Results reported in ChEMBL document CHEMBL1159176, “Regioselective synthesis of 3-aryl substituted pyrrolidines via palladium catalyzed arylation: pharmacological evaluation for central dopaminergic and serotonergic activity” (Bioorg Med Chem Lett, 1997).

Each molecule was assayed on Rattus norvegicus (assay: Accumulation of 5-Hydroxytryptophan in cortical brain region in rat after injecting drug compound 65 min and NSD 1015 at a dose of 100 mg/kg administered subcutaneously, 30 min before death, tested in vivo). Settings: route subcutaneous.
Assay type: functional

SMILES	Control [%]
CCCN1CCC(c2cccc(C(F)(F)F)c2)C1 (stereo not drawn)	87
CCCN1CCC(c2cccc(S(C)(=O)=O)c2)C1 (stereo not drawn)	92
CCCN1CCC(c2cccnc2)C1 (stereo not drawn)	94
CCCN1CCC[C@@H](c2cccc(S(C)(=O)=O)c2)C1	78
c1ccc2c(C3CCNC3)cccc2c1 (stereo not drawn)	86
CS(=O)(=O)c1cccc(C2CCNC2)c1 (stereo not drawn)	98
FC(F)(F)c1cccc(C2CCNC2)c1 (stereo not drawn)	70

Each molecule was assayed on Rattus norvegicus (assay: Accumulation of 5-Hydroxytryptophan in striatal region in rat after injecting drug compound 65 min and NSD 1015 at a dose of 100 mg/kg administered subcutaneously, 30 min before death, tested in vivo). Settings: route subcutaneous.
Assay type: functional

SMILES	Control [%]
CCCN1CCC(c2cccc(C(F)(F)F)c2)C1 (stereo not drawn)	78
CCCN1CCC(c2cccc(S(C)(=O)=O)c2)C1 (stereo not drawn)	78
CCCN1CCC(c2cccnc2)C1 (stereo not drawn)	104
CCCN1CCC[C@@H](c2cccc(S(C)(=O)=O)c2)C1	85
c1ccc2c(C3CCNC3)cccc2c1 (stereo not drawn)	93
CS(=O)(=O)c1cccc(C2CCNC2)c1 (stereo not drawn)	92
FC(F)(F)c1cccc(C2CCNC2)c1 (stereo not drawn)	82

The molecules below were run against T1, D(2) dopamine receptor (Rattus norvegicus, UniProt P61169) (assay: Inhibitory concentration against [3H]U-86170 binding to Dopamine receptor D2 expressed in CHO-K1 cells). Settings: not given.
Assay type: cell-based

T1 sequence (P61169 whole entry): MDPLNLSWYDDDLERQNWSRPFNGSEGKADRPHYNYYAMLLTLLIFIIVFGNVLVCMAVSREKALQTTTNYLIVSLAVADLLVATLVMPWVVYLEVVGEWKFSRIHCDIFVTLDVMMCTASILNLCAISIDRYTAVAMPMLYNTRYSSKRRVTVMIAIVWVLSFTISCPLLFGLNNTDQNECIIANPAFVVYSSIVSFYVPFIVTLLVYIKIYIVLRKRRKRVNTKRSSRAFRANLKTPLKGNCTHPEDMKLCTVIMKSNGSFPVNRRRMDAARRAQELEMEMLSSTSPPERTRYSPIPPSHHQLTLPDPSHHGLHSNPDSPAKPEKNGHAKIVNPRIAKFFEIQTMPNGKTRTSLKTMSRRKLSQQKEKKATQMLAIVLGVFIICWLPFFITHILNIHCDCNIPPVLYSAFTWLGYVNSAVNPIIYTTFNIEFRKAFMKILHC

SMILES	IC50 [nM]
CCCN1CCC(c2cccc(S(C)(=O)=O)c2)C1 (stereo not drawn)	> 1000
CCCN1CCC(c2cccnc2)C1 (stereo not drawn)	> 1000
CS(=O)(=O)c1cccc(C2CCNC2)c1 (stereo not drawn)	> 1000

What follows are molecules tested on Rattus norvegicus (assay: Accumulation of Dihydroxyphenylalanine in striatal region in rat after injecting drug compound 65 min and NSD 1015 at a dose of 100 mg/kg administered subcutaneously, 30 min before death, tested in vivo). Settings: route subcutaneous.
Assay type: functional

SMILES	Control [%]
CCCN1CCC(c2cccc(C(F)(F)F)c2)C1 (stereo not drawn)	297
CCCN1CCC(c2cccc(S(C)(=O)=O)c2)C1 (stereo not drawn)	256
CCCN1CCC(c2cccnc2)C1 (stereo not drawn)	108
CCCN1CCC[C@@H](c2cccc(S(C)(=O)=O)c2)C1	317
c1ccc2c(C3CCNC3)cccc2c1 (stereo not drawn)	82
CS(=O)(=O)c1cccc(C2CCNC2)c1 (stereo not drawn)	91
FC(F)(F)c1cccc(C2CCNC2)c1 (stereo not drawn)	163

These molecules were tested against T2, D(3) dopamine receptor (Rattus norvegicus, UniProt P19020) (assay: Binding affinity against [3H]spiperone binding to Dopamine receptor D3 expressed in CHO-K1 cells). Settings: not given.
Assay type: cell-based

T2 sequence (P19020 whole entry): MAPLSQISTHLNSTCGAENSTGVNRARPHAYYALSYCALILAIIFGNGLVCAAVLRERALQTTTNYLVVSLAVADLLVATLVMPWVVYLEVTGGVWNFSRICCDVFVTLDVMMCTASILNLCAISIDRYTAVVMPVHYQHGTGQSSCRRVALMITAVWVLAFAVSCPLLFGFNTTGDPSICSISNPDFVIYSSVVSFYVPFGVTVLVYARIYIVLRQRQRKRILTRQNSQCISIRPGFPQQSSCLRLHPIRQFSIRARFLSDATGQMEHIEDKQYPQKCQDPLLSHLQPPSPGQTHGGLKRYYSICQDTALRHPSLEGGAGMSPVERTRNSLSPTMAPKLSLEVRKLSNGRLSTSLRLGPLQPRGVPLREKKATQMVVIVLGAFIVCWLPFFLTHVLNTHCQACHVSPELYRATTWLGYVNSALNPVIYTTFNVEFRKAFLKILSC

SMILES	Ki [nM]
CCCN1CCC(c2cccc(C(F)(F)F)c2)C1 (stereo not drawn)	35
FC(F)(F)c1cccc(C2CCNC2)c1 (stereo not drawn)	633

What follows are molecules tested on Rattus norvegicus (assay: Accumulation of 5-Hydroxytryptophan in limbic region in rat after injecting drug compound 65 min and NSD 1015 at a dose of 100 mg/kg administered subcutaneously, 30 min before death, tested in vivo). Settings: route subcutaneous.
Assay type: functional, Limbic system

SMILES	Control [%]
CCCN1CCC(c2cccc(C(F)(F)F)c2)C1 (stereo not drawn)	97
CCCN1CCC(c2cccc(S(C)(=O)=O)c2)C1 (stereo not drawn)	97
CCCN1CCC(c2cccnc2)C1 (stereo not drawn)	90
CCCN1CCC[C@@H](c2cccc(S(C)(=O)=O)c2)C1	83
c1ccc2c(C3CCNC3)cccc2c1 (stereo not drawn)	94
CS(=O)(=O)c1cccc(C2CCNC2)c1 (stereo not drawn)	96
FC(F)(F)c1cccc(C2CCNC2)c1 (stereo not drawn)	70

The molecules below were run against T3, Serotonin 2 (5-HT2) receptor (Rattus norvegicus, UniProt P30994+P08909+P14842) (assay: Binding affinity against [3H]ketanserin binding to 5-hydroxytryptamine 2 receptor expressed in CHO-K1 cells). Settings: not given.
Assay type: cell-based

SMILES	Ki [nM]
CCCN1CCC(c2cccc(C(F)(F)F)c2)C1 (stereo not drawn)	569
c1ccc2c(C3CCNC3)cccc2c1 (stereo not drawn)	40
FC(F)(F)c1cccc(C2CCNC2)c1 (stereo not drawn)	227

These molecules were tested on Rattus norvegicus (assay: Accumulation of Dihydroxyphenylalanine in limbic region in rat after injecting drug compound 65 min and NSD 1015 at a dose of 100 mg/kg administered subcutaneously, 30 min before death, tested in vivo). Settings: route subcutaneous.
Assay type: functional, Limbic system

SMILES	Control [%]
CCCN1CCC(c2cccc(C(F)(F)F)c2)C1 (stereo not drawn)	205
CCCN1CCC(c2cccc(S(C)(=O)=O)c2)C1 (stereo not drawn)	207
CCCN1CCC(c2cccnc2)C1 (stereo not drawn)	111
CCCN1CCC[C@@H](c2cccc(S(C)(=O)=O)c2)C1	228
c1ccc2c(C3CCNC3)cccc2c1 (stereo not drawn)	92
CS(=O)(=O)c1cccc(C2CCNC2)c1 (stereo not drawn)	89
FC(F)(F)c1cccc(C2CCNC2)c1 (stereo not drawn)	113

What follows are molecules tested against T4, 5-hydroxytryptamine receptor 1A (Rattus norvegicus, UniProt P19327) (assay: Inhibitory concentration against [3H]8-OH-DPAT binding to 5-hydroxytryptamine 1A receptor expressed in CHO-K1 cells). Settings: not given.
T4 sequence (P19327 whole entry): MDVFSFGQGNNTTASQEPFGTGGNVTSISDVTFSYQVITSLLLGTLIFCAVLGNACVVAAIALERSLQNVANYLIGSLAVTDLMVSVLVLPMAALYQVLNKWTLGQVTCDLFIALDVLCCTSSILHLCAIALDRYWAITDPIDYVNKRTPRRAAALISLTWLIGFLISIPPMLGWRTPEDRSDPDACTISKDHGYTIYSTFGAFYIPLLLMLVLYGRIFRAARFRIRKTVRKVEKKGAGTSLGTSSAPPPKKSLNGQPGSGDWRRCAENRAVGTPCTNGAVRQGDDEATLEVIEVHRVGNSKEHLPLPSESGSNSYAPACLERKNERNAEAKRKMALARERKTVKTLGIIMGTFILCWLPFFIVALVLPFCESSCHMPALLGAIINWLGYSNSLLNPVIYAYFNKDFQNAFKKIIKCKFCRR
Assay type: cell-based

SMILES	IC50 [nM]
CCCN1CCC(c2cccnc2)C1 (stereo not drawn)	> 1000
CS(=O)(=O)c1cccc(C2CCNC2)c1 (stereo not drawn)	> 1000

The molecules below were run against T1, D(2) dopamine receptor (assay: Binding affinity against [3H]U-86170 binding to Dopamine receptor D2 expressed in CHO-K1 cells). Settings: not given.
Assay type: cell-based

SMILES	Ki [nM]
CCCN1CCC(c2cccc(C(F)(F)F)c2)C1 (stereo not drawn)	151
c1ccc2c(C3CCNC3)cccc2c1 (stereo not drawn)	264
FC(F)(F)c1cccc(C2CCNC2)c1 (stereo not drawn)	100

These molecules were tested against T2, D(3) dopamine receptor (assay: Inhibitory concentration against [3H]spiperone binding to Dopamine receptor D3 expressed in CHO-K1 cells). Settings: not given.
Assay type: cell-based

SMILES	IC50 [nM]
CCCN1CCC(c2cccc(S(C)(=O)=O)c2)C1 (stereo not drawn)	> 1000
CCCN1CCC(c2cccnc2)C1 (stereo not drawn)	> 1000
c1ccc2c(C3CCNC3)cccc2c1 (stereo not drawn)	> 1000
CS(=O)(=O)c1cccc(C2CCNC2)c1 (stereo not drawn)	> 1000

The molecules below were run against T3, Serotonin 2 (5-HT2) receptor (assay: Inhibitory concentration against [3H]ketanserin binding to 5-hydroxytryptamine 2 receptor expressed in CHO-K1 cells). Settings: not given.
Assay type: cell-based

SMILES	IC50 [nM]
CCCN1CCC(c2cccc(S(C)(=O)=O)c2)C1 (stereo not drawn)	> 1000
CCCN1CCC(c2cccnc2)C1 (stereo not drawn)	> 1000
CS(=O)(=O)c1cccc(C2CCNC2)c1 (stereo not drawn)	> 1000

Each molecule was assayed on Rattus norvegicus (assay: Locomotor activity, measured for 30 min after injection of drug, administered subcutaneously at 100 umol/kg). Settings: not given.
Assay type: functional

SMILES	Control [%]
CCCN1CCC(c2cccc(C(F)(F)F)c2)C1 (stereo not drawn)	89
CCCN1CCC(c2cccc(S(C)(=O)=O)c2)C1 (stereo not drawn)	126
CCCN1CCC(c2cccnc2)C1 (stereo not drawn)	15
CCCN1CCC[C@@H](c2cccc(S(C)(=O)=O)c2)C1	135
c1ccc2c(C3CCNC3)cccc2c1 (stereo not drawn)	129
CS(=O)(=O)c1cccc(C2CCNC2)c1 (stereo not drawn)	71
FC(F)(F)c1cccc(C2CCNC2)c1 (stereo not drawn)	74

What follows are molecules tested on Rattus norvegicus (assay: Accumulation of Dihydroxyphenylalanine in cortical brain region in rat after injecting drug compound 65 min and NSD 1015 at a dose of 100 mg/kg administered subcutaneously, 30 min before death, tested in vivo). Settings: route subcutaneous.
Assay type: functional

SMILES	Control [%]
CCCN1CCC(c2cccc(C(F)(F)F)c2)C1 (stereo not drawn)	131
CCCN1CCC(c2cccc(S(C)(=O)=O)c2)C1 (stereo not drawn)	143
CCCN1CCC(c2cccnc2)C1 (stereo not drawn)	132
CCCN1CCC[C@@H](c2cccc(S(C)(=O)=O)c2)C1	165
c1ccc2c(C3CCNC3)cccc2c1 (stereo not drawn)	104
CS(=O)(=O)c1cccc(C2CCNC2)c1 (stereo not drawn)	104
FC(F)(F)c1cccc(C2CCNC2)c1 (stereo not drawn)	72

These molecules were tested against T4, 5-hydroxytryptamine receptor 1A (assay: Binding affinity against [3H]8-OH-DPAT binding to 5-hydroxytryptamine 1A receptor expressed in CHO-K1 cells). Settings: not given.
Assay type: cell-based

SMILES	Ki [nM]
CCCN1CCC(c2cccc(C(F)(F)F)c2)C1 (stereo not drawn)	351
CCCN1CCC(c2cccc(S(C)(=O)=O)c2)C1 (stereo not drawn)	807
c1ccc2c(C3CCNC3)cccc2c1 (stereo not drawn)	95
FC(F)(F)c1cccc(C2CCNC2)c1 (stereo not drawn)	174
